# From patent publication US10654833B2, “ASK1 isoindolin-1-one inhibitors and methods of use thereof” (Hepatikos Therapeutics, LLC, priority 2018, dated 2020)
# pIC50: −log10 of the molar value.
# Target: recombinant human ASK1 protein (Homo sapiens (Human), UniProt Q99683)
# Assay: ASK1 kinase activity inhibition assay (radiometric 33P incorporation into MBP)
# Assay type: biochemical
# Settings: Table 3; 20 μM MBP, 10 μM 33P-ATP
# Procedure: ASK1 Kinase Activity Inhibition Assay
# Inhibition of ASK1 kinase activity was determined radiometrically using 33P substrate incorporation (Reaction Biology Corp., Malvern, Pa.). Briefly, recombinant human ASK1 protein, 20 μM substrate (myelin basic protein (MBP)), and compound (diluted from DMSO stock to give 1% final DMSO) were incubated in Base Reaction buffer (20 mM Hepes (pH 7.5), 10 mM MgCl2, 1 mM EGTA, 0.02% Brij35, 0.02 mg/mL BSA, 0.1 mM Na3VO4, 2 mM DTT, 1% DMSO) at room temperature for 20 minutes. The reaction was initiated by addition of 10 μM 33P-ATP (specific activity […]). The reaction was then allowed to proceed for 2 hours at room temperature. Upon reaction termination, the mixture was spotted on P81 exchange paper and kinase activity by incorporation of 33P into MBP substrate was detected by filter-binding method.
# Sequence of recombinant human ASK1 protein (Q99683 whole entry): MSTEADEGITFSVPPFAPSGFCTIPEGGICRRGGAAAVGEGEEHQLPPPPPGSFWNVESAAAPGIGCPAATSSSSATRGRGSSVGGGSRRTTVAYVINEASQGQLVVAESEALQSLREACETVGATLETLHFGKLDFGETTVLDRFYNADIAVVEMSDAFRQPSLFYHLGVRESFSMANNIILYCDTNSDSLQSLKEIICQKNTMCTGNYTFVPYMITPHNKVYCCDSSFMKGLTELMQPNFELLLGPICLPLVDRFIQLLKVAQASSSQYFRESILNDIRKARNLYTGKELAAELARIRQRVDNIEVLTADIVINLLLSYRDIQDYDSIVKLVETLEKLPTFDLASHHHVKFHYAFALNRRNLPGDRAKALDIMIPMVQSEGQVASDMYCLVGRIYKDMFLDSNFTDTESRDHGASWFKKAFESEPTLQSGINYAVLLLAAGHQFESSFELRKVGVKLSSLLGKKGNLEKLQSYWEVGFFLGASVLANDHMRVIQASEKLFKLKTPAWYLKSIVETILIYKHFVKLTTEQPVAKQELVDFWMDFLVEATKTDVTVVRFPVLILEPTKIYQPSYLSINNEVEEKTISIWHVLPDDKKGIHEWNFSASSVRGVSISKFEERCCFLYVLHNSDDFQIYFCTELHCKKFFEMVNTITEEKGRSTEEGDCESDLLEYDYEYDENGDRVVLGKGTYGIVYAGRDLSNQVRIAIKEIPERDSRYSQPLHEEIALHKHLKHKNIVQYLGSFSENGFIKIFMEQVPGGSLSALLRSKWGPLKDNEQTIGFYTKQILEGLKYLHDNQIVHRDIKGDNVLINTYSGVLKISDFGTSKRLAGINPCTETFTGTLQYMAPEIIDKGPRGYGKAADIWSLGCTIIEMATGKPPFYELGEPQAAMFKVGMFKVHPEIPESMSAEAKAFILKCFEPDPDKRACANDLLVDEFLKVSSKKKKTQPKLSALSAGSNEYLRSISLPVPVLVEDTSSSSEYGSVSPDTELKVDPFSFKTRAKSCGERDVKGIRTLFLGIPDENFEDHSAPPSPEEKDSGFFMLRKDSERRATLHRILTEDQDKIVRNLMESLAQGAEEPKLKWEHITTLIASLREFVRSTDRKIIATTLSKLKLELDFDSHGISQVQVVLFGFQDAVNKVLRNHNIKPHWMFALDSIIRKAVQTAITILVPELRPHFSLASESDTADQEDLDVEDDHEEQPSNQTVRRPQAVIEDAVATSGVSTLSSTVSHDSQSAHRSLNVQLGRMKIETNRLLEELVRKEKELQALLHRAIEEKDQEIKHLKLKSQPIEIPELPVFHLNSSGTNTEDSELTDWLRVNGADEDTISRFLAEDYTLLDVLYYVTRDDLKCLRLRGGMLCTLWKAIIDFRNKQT
row,pIC50,Compound
1,8.28,"CC(C)n1cnnc1-c1cccc(N2Cc3ccc(-c4cccc(CCC(=O)O)c4)cc3C2=O)n1 [Compound 107, 3-(3-(2-(6-(4-Isopropyl-4H-1,2,4-triazol-3-yl)pyridin-2-yl)-3-oxoisoindolin-5-yl)phenyl) Propanoic Acid]"
2,8.37,"CC(C)n1cnnc1-c1cccc(N2Cc3ccc(-c4ccc(CC(=O)O)cc4)cc3C2=O)n1 [Compound 84, 2-(4-(2-(6-(4-Isopropy-4H-1,2,4-triazol-3-yl)pyridin-2-yl)-3-oxoisoindolin-5-yl)phenyl)acetic Acid]"
3,8.29,"CC(C)n1cnnc1-c1cccc(N2Cc3ccc(-c4ccc(C(=O)O)cc4CO)cc3C2=O)n1 [Compound 58, 3-(Hydroxymethyl)-4-(2-(6-(4-isopropyl-4H-1,2,4-triazol-3-yl)pyridin-2-yl)-3-oxoisoindolin-5-yl)benzoic Acid]"
4,8.30,"CC(C)n1cnnc1-c1cccc(N2Cc3ccc(-c4ccc(Cl)c(C(=O)O)c4)cc3C2=O)n1 [Compound 60, 2-Chloro-5-(2-(6-(4-isopropyl-4H-1,2,4-triazol-3-yl)pyridin-2-yl)-3-oxoisoindolin-5-yl)benzoic Acid]"
5,8.21,"CC(C)n1cnnc1-c1cccc(N2Cc3ccc(-c4ccc(C(=O)O)c(CO)c4)cc3C2=O)n1 [Compound 83, 2-(Hydroxymethyl)-4-(2-(6-(4-isopropyl-4H-1,2,4-triazol-3-yl)pyridin-2-yl)-3-oxoisoindolin-5-yl)benzoic Acid]"
6,8.34,"Cc1cc(F)c(C(=O)O)cc1-c1ccc2c(c1)C(=O)N(c1cccc(-c3nncn3C(C)C)n1)C2 [Compound 79, 2-Fluoro-5-(2-(6-(4-isopropyl-4H-1,2,4-triazol-3-yl)pyridin-2-yl)-3-oxoisoindolin-5-yl)-4-methylbenzoic Acid]"
7,7.91,"Cc1c(C(=O)O)cc(N)cc1-c1ccc2c(c1)C(=O)N(c1cccc(-c3nncn3C(C)C)n1)C2 [Compound 68, 5-Amino-3-(2-(6-(4-isopropyl-4H-1,2,4-triazol-3-yl)pyridin-2-yl)-3-oxoisoindolin-5-yl)-2-methylbenzoic Acid]"
8,7.97,"COc1ccc(C(=O)O)cc1-c1ccc2c(c1)C(=O)N(c1cccc(-c3nncn3C(C)C)n1)C2 [Compound 8, 3-(2-(6-(4-Isopropyl-4H-1,2,4-triazol-3-yl)pyridin-2-yl)-3-oxoisoindolin-5-yl)-4-methoxybenzoic Acid]"
9,8.19,"Cc1cc(C(=O)O)cc(-c2ccc3c(c2)C(=O)N(c2cccc(-c4nncn4C(C)C)n2)C3)n1 [Compound 115, 2-(2-(6-(4-Isopropyl-4H-1,2,4-triazol-3-yl)pyridin-2-yl)-3-oxoisoindolin-5-yl)-6-methylisonicotinic Acid]"
10,8.28,"COc1c(C)cc(-c2ccc3c(c2)C(=O)N(c2cccc(-c4nncn4C(C)C)n2)C3)cc1C(=O)O [Compound 80, 5-(2-(6-(4-Isopropyl-4H-1,2,4-triazol-3-yl)pyridin-2-yl)-3-oxoisoindolin-5-yl)-2-methoxy-3-methylbenzoic Acid]"
11,8.24,"Cc1cc(C(=O)O)ccc1-c1ccc2c(c1)C(=O)N(c1cccc(-c3nncn3C(C)C)n1)C2 [Compound 74, 4-(2-(6-(4-Isopropyl-4H-1,2,4-triazol-3-yl)pyridin-2-yl)-3-oxoisoindolin-5-yl)-3-methylbenzoic Acid]"
12,7.84,"Cc1cc(-c2ccc3c(c2)C(=O)N(c2cccc(-c4nncn4C(C)C)n2)C3)ccc1C(=O)O [Compound 73, 4-(2-(6-(4-isopropyl-4H-1,2,4-triazol-3-yl)pyridin-2-yl)-3-oxoisoindolin-5-yl)-2-methyl]"
13,8.14,"CC(C)n1cnnc1-c1cccc(N2Cc3ccc(-c4cccc(C5(C(=O)O)CC5)c4)cc3C2=O)n1 [Compound 105, 1-(3-(2-(6-(4-Isopropyl-4H-1,2,4-triazol-3-yl)pyridin-2-yl)-3-oxoisoindolin-5-yl)phenyl)cyclopropane-1-carboxylic Acid]"
14,8.18,"COC(=O)c1ccc(F)c(-c2ccc3c(c2)C(=O)N(c2cccc(-c4nncn4C(C)C)n2)C3)c1 [Compound 100, Methyl 4-fluoro-3-(2-(6-(4-isopropyl-4H-1,2,4-triazol-3-yl)pyridin-2-yl)-3-oxoisoindolin-5-yl)benzoate]"
15,8.27,"CC(C)n1cnnc1-c1cccc(N2Cc3ccc(-c4ccc(C(=O)O)cc4)cc3C2=O)n1 [Compound 55, 4-(2-(6-(4-Isopropyl-4H-1,2,4-triazol-3-yl)pyridin-2-yl)-3-oxoisoindolin-5-yl)benzoic Acid]"
16,7.83,"COC(=O)c1ccc(-c2ccc3c(c2)C(=O)N(c2cccc(-c4nncn4C(C)C)n2)C3)cc1 [Compound 81, Methyl 4-(2-(6-(4-isopropyl-4H-1,2,4-triazol-3-yl)pyridin-2-yl)-3-oxoisoindolin-5-yl)benzoate]"

row,pIC50,Compound
1,8.72,"CC(C)n1cnnc1-c1cccc(N2Cc3ccc(-c4cnc(N)c(C(=O)O)c4)cc3C2=O)n1 [Compound 117, 2-Amino-5-(2-(6-(4-isopropyl-4H-1,2,4-triazol-3-yl)pyridin-2-yl)-3-oxoisoindolin-5-yl) Nicotinic Acid]"
2,6.80,"CC(C)n1cnnc1-c1cccc(N2Cc3ccc(-c4c(F)cccc4C(=O)O)cc3C2=O)n1 [Compound 70, 3-Fluoro-2-(2-(6-(4-isopropyl-4H-1,2,4-triazol-3-yl)pyridin-2-yl)-3-oxoisoindolin-5-yl)benzoic Acid]"
3,8.16,"Cc1c(C(=O)O)cccc1-c1ccc2c(c1)C(=O)N(c1cccc(-c3nncn3C(C)C)n1)C2 [Compound 94, 3-(2-(6-(4-Isopropyl-4H-1,2,4-triazol-3-yl)pyridin-2-yl)-3-oxoisoindolin-5-yl)-2-methylbenzoic Acid]"
4,8.33,"CC(C)n1cnnc1-c1cccc(N2Cc3ccc(-c4ccc(C(C)(C)C(=O)O)cc4F)cc3C2=O)n1 [Compound 41, 2-(3-Fluoro-4-(2-(6-(4-isopropyl-4H-1,2,4-triazol-3-yl)pyridin-2-yl)-3-oxoisoindolin-5-yl)phenyl)-2-methylpropanoic Acid]"
5,8.24,"CC(C)n1cnnc1-c1cccc(N2Cc3ccc(-c4ccc(C(=O)O)cc4F)cc3C2=O)n1 [Compound 57, 3-Fluoro-4-(2-(6-(4-isopropyl-4H-1,2,4-triazol-3-yl)pyridin-2-yl)-3-oxoisoindolin-5-yl)benzoic Acid]"
6,8.17,"CC(C)n1cnnc1-c1cccc(N2Cc3ccc(-c4cc(F)cc(C(=O)O)c4)cc3C2=O)n1 [Compound 4, 3-Fluoro-5-(2-(6-(4-isopropyl-4H-1,2,4-triazol-3-yl)pyridin-2-yl)-3-oxoisoindolin-5-yl)benzoic Acid]"
7,7.33,"COC(=O)C(C)(C)c1cccc(-c2ccc3c(c2)C(=O)N(c2cccc(-c4nncn4C4CC4)n2)C3)c1 [Compound 104, Methyl 2-(3-(2-(6-(4-cyclopropyl-4H-1,2,4-triazol-3-yl)pyridin-2-yl)-3-oxoisoindolin-5-yl)phenyl)-2-methylpropanoate]"
8,8.29,"CC(C)n1cnnc1-c1cccc(N2Cc3ccc(-c4ccc5cc(C(=O)O)[nH]c5c4)cc3C2=O)n1 [Compound 61, 6-(2-(6-(4-Isopropyl-4H-1,2,4-triazol-3-yl)pyridin-2-yl)-3-oxoisoindolin-5-yl)-1H-indole-2-carboxylic Acid]"
9,8.31,"Cc1c(F)cc(C(=O)O)cc1-c1ccc2c(c1)C(=O)N(c1cccc(-c3nncn3C(C)C)n1)C2 [Compound 98, 3-Fluoro-5-(2-(6-(4-isopropyl-4H-1,2,4-triazol-3-yl)pyridin-2-yl)-3-oxoisoindolin-5-yl)-4-methylbenzoic Acid]"
10,8.18,"CC(C)n1cnnc1-c1cccc(N2Cc3ccc(N4CCC(CC(=O)O)CC4)cc3C2=O)n1 [Compound 129, 2-(1-(2-(6-(4-Isopropyl-4H-1,2,4-triazol-3-yl)pyridin-2-yl)-3-oxoisoindolin-5-yl)piperidin-4-yl)acetic Acid]"
11,8.28,"6-(2-(6-(4-Isopropyl-4H-1,2,4-triazol-3-yl)pyridin-2-yl)-3-oxoisoindolin-5-yl)pyridazine-4-carboxylic Acid [Compound 119]"
12,8.34,"CC(C)n1cnnc1-c1cccc(N2Cc3ccc(-c4cc(F)c(C(=O)O)c(F)c4)cc3C2=O)n1 [Compound 78, 2,6-Difluoro-4-(2-(6-(4-isopropyl-4H-1,2,4-triazol-3-yl)pyridin-2-yl)-3-oxoisoindolin-5-yl) Benzoic Acid]"
13,8.33,"CC(C)n1cnnc1-c1cccc(N2Cc3ccc(-c4ccc(C(=O)O)c(Cl)c4)cc3C2=O)n1 [Compound 72, 2-Chloro-4-(2-(6-(4-isopropyl-4H-1,2,4-triazol-3-yl)pyridin-2-yl)-3-oxoisoindolin-5-yl)benzoic Acid]"
14,8.36,"CC(C)n1cnnc1-c1cccc(N2Cc3ccc(-c4ccc(CCC(=O)O)cc4)cc3C2=O)n1 [Compound 90, 3-(4-(2-(6-(4-Isopropyl-4H-1,2,4-triazol-3-yl)pyridin-2-yl)-3-oxoisoindolin-5-yl)phenyl)propanoic Acid]"
15,8.41,"CC(C)n1cnnc1-c1cccc(N2Cc3ccc(-c4ccc5c(C(=O)O)cnn5c4)cc3C2=O)n1 [Compound 122, 6-(2-(6-(4-Isopropyl-4H-1,2,4-triazol-3-yl)pyridin-2-yl)-3-oxoisoindolin-5-yl)pyrazolo[1,5-a]pyridine-3-carboxylic Acid]"
16,8.31,"CC(C)n1cnnc1-c1cccc(N2Cc3ccc(-c4ccc(OCC(=O)O)cc4)cc3C2=O)n1 [Compound 89, 2-(4-(2-(6-(4-Isopropyl-4H-1,2,4-triazol-3-yl)pyridin-2-yl)-3-oxoisoindolin-5-yl)phenoxy) acetic Acid]"
